“And” between values parts separate entries of the source, which are not always exact repeats. Equal entries are not always repeated. Toxic doses and inconclusive results are not listed. The calls were made as follows: active = survival T/C of 150% or more; inactive = T/C below 125% in these data.
System: P388 leukemia ip, CD2F1 mice, survival T/C
Assay: NCI In Vivo Anticancer Drug Screen. Data for tumor model P388 Leukemia (intraperitoneal) in CD2F1 (CDF1) mice
Settings: endpoint: median survival time, higher = longer survival
Outline: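 Mice carrying the transplanted tumor received test compound or vehicle. Survival was recorded in each group, and the value is the treated-group measurement divided by that of the vehicle-treated control group.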

[1] = dose: 50.0 mg/kg/injection, schedule: Q01DX005 (ip), vehicle: saline
[2] = dose: 100.0 mg/kg/injection, schedule: Q01DX005 (ip), vehicle: saline
[3] = dose: 200.0 mg/kg/injection, schedule: Q01DX005 (ip), vehicle: saline
[4] = dose: 50.0 mg/kg/injection, schedule: Q01DX005 (ip), vehicle: Klucel (hydroxypropylcellulose) (HPC)
[5] = dose: 100.0 mg/kg/injection, schedule: Q01DX005 (ip), vehicle: Klucel (hydroxypropylcellulose) (HPC)
[6] = dose: 200.0 mg/kg/injection, schedule: Q01DX005 (ip), vehicle: Klucel (hydroxypropylcellulose) (HPC)
[7] = dose: 50.0 mg/kg/injection, schedule: Q01DX009 (ip), vehicle: Klucel (hydroxypropylcellulose) (HPC)
[8] = dose: 100.0 mg/kg/injection, schedule: Q01DX009 (ip), vehicle: Klucel (hydroxypropylcellulose) (HPC)
[9] = dose: 50.0 mg/kg/injection, schedule: Q01DX009 (ip), vehicle: saline with Tween-80
[10] = dose: 60.0 mg/kg/injection, schedule: Q01DX005 (ip), vehicle: Klucel (hydroxypropylcellulose) (HPC)
[11] = dose: 120.0 mg/kg/injection, schedule: Q01DX005 (ip), vehicle: Klucel (hydroxypropylcellulose) (HPC)
[12] = dose: 240.0 mg/kg/injection, schedule: Q01DX005 (ip), vehicle: Klucel (hydroxypropylcellulose) (HPC)
[13] = dose: 100.0 mg/kg/injection, schedule: Q01DX009 (ip), vehicle: saline with Tween-80
[14] = dose: 200.0 mg/kg/injection, schedule: Q01DX009 (ip), vehicle: saline with Tween-80
[15] = dose: 50.0 mg/kg/injection, schedule: Q01DX005 (ip), vehicle: saline with Tween-80
[16] = dose: 100.0 mg/kg/injection, schedule: Q01DX005 (ip), vehicle: saline with Tween-80
[17] = dose: 200.0 mg/kg/injection, schedule: Q01DX005 (ip), vehicle: saline with Tween-80
[18] = dose: 6.25 mg/kg/injection, schedule: Q01DX005 (ip), vehicle: saline with Tween-80
[19] = dose: 12.5 mg/kg/injection, schedule: Q01DX005 (ip), vehicle: saline with Tween-80
[20] = dose: 60.0 mg/kg/injection, schedule: Q01DX005 (ip), vehicle: saline with Tween-80
[21] = dose: 120.0 mg/kg/injection, schedule: Q01DX005 (ip), vehicle: saline with Tween-80
[22] = dose: 240.0 mg/kg/injection, schedule: Q01DX005 (ip), vehicle: saline with Tween-80
[23] = dose: 25.0 mg/kg/injection, schedule: Q01DX009 (ip), vehicle: Klucel (hydroxypropylcellulose) (HPC)

Measured: T/C

CCN(CC)CCCN1CC2CC=CCC2C1 (configuration not stated)
inactive: [1] 98 % of control | [2] 100 % of control | [3] 105 % of control

CCN(CC)CCOC(=O)Cc1cccc2c(=O)cc(-c3cccs3)oc12
inactive: dose: 25.0 mg/kg/injection, schedule: Q01DX005 (ip), vehicle: Klucel (hydroxypropylcellulose) (HPC) 106 % of control | [4] 104 % of control and 117 % of control | [5] 109 % of control
active: [6] 161 % of control

C=C(Cl)CSC(=S)N(CC)CC
inactive: dose: 37.5 mg/kg/injection, schedule: Q01DX009 (ip), vehicle: saline sonified 100 % of control | dose: 75.0 mg/kg/injection, schedule: Q01DX009 (ip), vehicle: saline sonified 104 % of control | dose: 150.0 mg/kg/injection, schedule: Q01DX009 (ip), vehicle: saline sonified 109 % of control

COc1ccc2c3c(cnc2c1)P(C)(=O)CC3 (configuration not stated)
inactive: dose: 50.0 mg/kg/injection, schedule: Q01DX009 (ip), vehicle: saline 101 % of control | dose: 100.0 mg/kg/injection, schedule: Q01DX009 (ip), vehicle: saline 96 % of control | dose: 200.0 mg/kg/injection, schedule: Q01DX009 (ip), vehicle: saline 102 % of control

O=C(CC(=O)Nc1ccccc1)Cc1ccccc1
inactive: [7] 102 % of control | [8] 97 % of control | dose: 200.0 mg/kg/injection, schedule: Q01DX009 (ip), vehicle: Klucel (hydroxypropylcellulose) (HPC) 99 % of control

C=CCN1CSC(=S)N(CC=C)C1
inactive: dose: 25.0 mg/kg/injection, schedule: Q01DX009 (ip), vehicle: saline with Tween-80 98 % of control | [9] 119 % of control and 94 % of control

COC(=O)/C(C#N)=C/c1cccnc1
inactive: [4] 101 % of control | [5] 101 % of control | [6] 107 % of control

CCN(CC)CCOC(=O)c1cc2cc3cc(C(=O)OCCN(CC)CC)c(=O)oc3c(C)c2oc1=O
inactive: [1] 113 % of control | [2] 114 % of control | [3] 107 % of control

C1C2CC3C1C1OC3C21
inactive: [10] 100 % of control | [11] 99 % of control | [12] 100 % of control

N#CC(C#N)=CNc1ccccc1
inactive: [9] 100 % of control | [13] 106 % of control | [14] 104 % of control

CCOC(=O)N1C=C(C(=O)OC)C(c2ccccc2)C(C(=O)OC)=C1
inactive: [15] 95 % of control | [16] 106 % of control | [17] 97 % of control

S=c1nc[nH]c2ccc3[nH]ncc3c12
inactive: [18] 93 % of control | [19] 90 % of control | dose: 25.0 mg/kg/injection, schedule: Q01DX005 (ip), vehicle: saline with Tween-80 92 % of control

C=C1C(=O)C[C@@H]2CC(C)(C)C[C@]12CC(=O)O
inactive: dose: 2.5 mg/kg/injection, schedule: Q01DX005 (ip), vehicle: water 90 % of control | dose: 5.0 mg/kg/injection, schedule: Q01DX005 (ip), vehicle: water 109 % of control | dose: 10.0 mg/kg/injection, schedule: Q01DX005 (ip), vehicle: water 97 % of control | dose: 20.0 mg/kg/injection, schedule: Q01DX005 (ip), vehicle: water 98 % of control | dose: 40.0 mg/kg/injection, schedule: Q01DX005 (ip), vehicle: water 101 % of control

CC(C)c1cc(C(F)(F)F)nc(NNc2nc(C(C)C)cc(C(F)(F)F)n2)n1
inactive: [9] 104 % of control | [13] 104 % of control | [14] 92 % of control

CSc1nc(N)n2nc(C)cc2n1
inactive: [20] 100 % of control | [21] 100 % of control | [22] 95 % of control

CCN(CC)Cc1c2c(O)c3c(O)c(C)c4c(c3c1O)C(=O)C(C)(O/C=C/C(OC)C(C)C(OC(C)=O)C(C)C(O)C(C)C(O)C(C)/C=C/C=C(\C)C(=O)N2)O4 (configuration not stated)
inactive: dose: 12.5 mg/kg/injection, schedule: Q01DX009 (ip), vehicle: Klucel (hydroxypropylcellulose) (HPC) 115 % of control | [23] 93 % of control | [4] 103 % of control | [7] 91 % of control | [9] 110 % of control | [5] 106 % of control | [8] 86 % of control | [13] 90 % of control | [6] 94 % of control | [14] 97 % of control | dose: 400.0 mg/kg/injection, schedule: Q01DX009 (ip), vehicle: Klucel (hydroxypropylcellulose) (HPC) 111 % of control

O=C1C=CC2C3C(=O)N(c4ccccc4)C(=O)C3C1N2Cc1ccccc1 (configuration not stated)
inactive: [15] 105 % of control and 110 % of control and 118 % of control | [16] 116 % of control and 117 % of control and 118 % of control | [17] 119 % of control and 120 % of control and 123 % of control | dose: 400.0 mg/kg/injection, schedule: Q01DX005 (ip), vehicle: saline with Tween-80 113 % of control and 114 % of control

Nc1nc(N)c2cc([N+](=O)[O-])ccc2n1
inactive: [20] 93 % of control | [21] 94 % of control | [22] 96 % of control

COC(=O)/C=C\C(C)=C/C(=O)OC
inactive: [4] 100 % of control | [5] 99 % of control | [6] 99 % of control

C[S+]1CCC(C(=O)[O-])N1 (configuration not stated)
inactive: [1] 101 % of control | [2] 98 % of control | [3] 98 % of control

O=c1c2ccccc2sc2cccc(NCCN3CCC(C4CCN(CCNc5cccc6sc7ccccc7c(=O)c56)CC4)CC3)c12
inactive: [18] 105 % of control | [19] 90 % of control | [15] 96 % of control | [16] 92 % of control

CNC(=O)N(C)C1=NC(O)(c2ccccc2)C(c2ccccc2)=N1 (configuration not stated)
inactive: dose: 100.0 mg/kg/injection, schedule: Q04DX002 (ip), vehicle: saline with Tween-80 87 % of control

CCC(=O)NC(N)=NC#N
inactive: dose: 60.0 mg/kg/injection, schedule: Q01DX005 (ip), vehicle: saline 99 % of control | dose: 120.0 mg/kg/injection, schedule: Q01DX005 (ip), vehicle: saline 101 % of control | dose: 240.0 mg/kg/injection, schedule: Q01DX005 (ip), vehicle: saline 98 % of control

O=C(O)CC1Sc2nc3c(n2C1(O)c1ccccc1)-c1ccccc1CC3 (configuration not stated)
inactive: [23] 111 % of control | [7] 98 % of control | [8] 100 % of control

COC(=O)C1C(COS(C)(=O)=O)ON2CCC(OC)(OC)C12 (configuration not stated)
inactive: [1] 95 % of control | [2] 98 % of control | [3] 95 % of control

CC(C)C12CC3=C(C(=O)C1O2)C1(C)CCC2=C(COC2=O)C1CC3 (configuration not stated)
inactive: dose: 3.75 mg/kg/injection, schedule: Q01DX005 (ip), vehicle: DMSO 102 % of control | dose: 7.5 mg/kg/injection, schedule: Q01DX005 (ip), vehicle: DMSO 119 % of control | dose: 15.0 mg/kg/injection, schedule: Q01DX005 (ip), vehicle: DMSO 123 % of control

COC(=O)[C@@H]1CC/C(=C(\C#N)C(=O)OC(C)(C)C)N1
inactive: [20] 95 % of control | [21] 96 % of control | [22] 91 % of control

COc1ccc2[s+]c(-c3ccccc3)ccc2c1
inactive: [10] 100 % of control | [11] 108 % of control | [12] 111 % of control

CCOC1=Nc2ccccc2C1(C)CCO (configuration not stated)
inactive: [20] 96 % of control | [21] 101 % of control | [22] 96 % of control

Source: PubChem BioAssay AID330 (DTP/NCI, 2004)
